Counter-ions that a name gives are not always drawn.
Tests used:
[1] = target: T1, recombinant human adrenergic beta 1 receptors (Homo sapiens, UniProt P08588); experiment: Adrenergic β1 selectivity binding assay ([125I]-Iodocyanopindolol); details: inhibition of [125I]-Iodocyanopindolol (0.036 nM) binding; for IC50: read-out: β1 bind p IC50 (converted)
T1 construct: purchased Euroscreen
In short: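 Displacement of [^125I]-Iodocyanopindolol (0.036 nM final) from human β1 receptor membranes, 2 hours at room temperature, pH 7.4 HEPES/EDTA/NaCl buffer. After filtration, scintillation counting; NSB set with 10 μM propranolol and subtracted. Four-parameter logistic fitting gave pIC50.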

Adrenergic β2 = target: T2, Adrenergic β2 (Homo sapiens, UniProt P07550); experiment: Adrenergic β2 mediated cAMP production in H292 cells; assay type: cell-based; details: for EC50: read-out: β2 pEC50 (converted); for β2 Int Act: Intrinsic Activity as a fraction relative to the maximum activity determined for formoterol
T2 construct: Adherent H292 cells were removed from tissue culture flasks; endogenous in cells; host or cells: H292 cells
In short: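 cAMP accumulation in adherent H292 cells, measured by AlphaScreen and calibrated with cAMP standards. Compounds incubated 60 min at room temperature after 10 min rolipram (final 300 μM; vehicle 1.6% DMSO). pEC50 and intrinsic activity, as a fraction of formoterol's maximum, from four-parameter logistic fit.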

[2] = H292 cells, cAMP by AlphaScreen, 60 minutes at room temperature, rolipram 300 μM

T1 sequence (P08588 whole entry): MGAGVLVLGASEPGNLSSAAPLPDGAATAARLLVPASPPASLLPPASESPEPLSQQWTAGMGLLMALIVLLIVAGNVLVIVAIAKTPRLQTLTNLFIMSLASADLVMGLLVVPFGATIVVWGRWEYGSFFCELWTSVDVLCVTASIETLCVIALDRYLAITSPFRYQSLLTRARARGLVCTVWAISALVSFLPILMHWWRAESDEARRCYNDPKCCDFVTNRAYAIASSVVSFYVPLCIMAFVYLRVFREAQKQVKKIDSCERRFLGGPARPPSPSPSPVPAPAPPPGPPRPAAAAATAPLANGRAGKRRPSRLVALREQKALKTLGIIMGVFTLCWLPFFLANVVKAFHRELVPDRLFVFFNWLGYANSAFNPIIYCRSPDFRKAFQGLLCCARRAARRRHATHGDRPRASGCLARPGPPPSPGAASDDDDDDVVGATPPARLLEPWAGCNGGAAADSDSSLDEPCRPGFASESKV
T2 sequence (P07550 whole entry): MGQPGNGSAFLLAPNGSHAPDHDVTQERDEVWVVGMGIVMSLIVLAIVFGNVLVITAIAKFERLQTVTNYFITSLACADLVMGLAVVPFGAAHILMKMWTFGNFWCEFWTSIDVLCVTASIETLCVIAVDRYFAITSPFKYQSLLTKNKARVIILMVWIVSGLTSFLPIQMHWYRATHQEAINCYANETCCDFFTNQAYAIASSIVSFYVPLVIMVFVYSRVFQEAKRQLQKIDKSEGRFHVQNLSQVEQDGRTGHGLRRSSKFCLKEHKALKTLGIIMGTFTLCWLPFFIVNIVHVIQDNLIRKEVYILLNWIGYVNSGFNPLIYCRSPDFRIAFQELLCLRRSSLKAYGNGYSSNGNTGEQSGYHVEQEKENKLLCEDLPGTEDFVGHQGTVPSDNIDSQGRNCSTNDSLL

Compound	IC50 [1] [nM]	EC50 (Adrenergic β2; [2]) [nM]	β2 Int Act (Adrenergic β2)	β1 bind p IC50 [1]	β2 pEC50 (Adrenergic β2; [2])	β2 Int Act (Adrenergic β2; dihydrobromide salt)
O=C(CCNCCc1ccccc1Cl)N(CCNCCc1ccc(O)c2[nH]c(=O)sc12)C1CCCC1 [Example 29, N^3-[2-(2-Chlorophenyl)ethyl]-N-cyclopentyl-N-(2-{[2-(4-hydroxy-2-oxo-2,3-dihydro-1,3-benzothiazol-7-yl)ethyl]amino}ethyl)-β-alaninamide bis-trifluoroacetic acid salt]	3160	3.98	0.97	–	–	–
CCCC(CCC)N(CCNCCc1ccc(O)c2[nH]c(=O)sc12)C(=O)CCNCCc1ccc(F)cc1 [Example 64, N^3-[2-(4-Fluorophenyl)ethyl]-N^1-(2-{[2-(4-hydroxy-2-oxo-2,3-dihydro-1,3-benzothiazol-7-yl)ethyl]amino}ethyl)-N^1-(1-propylbutyl)-β-alaninamide bis-trifluoroacetic acid salt]	6310	316	0.70	–	–	–
O=C(CCNCCc1cc(F)ccc1F)N(CCNCCc1ccc(O)c2[nH]c(=O)sc12)C1CCCCC1 [Example 79, N^1-Cyclohexyl-N^3-[2-(2,5-difluorophenyl)ethyl]-N^1-(2-{[2-(4-hydroxy-2-oxo-2,3-dihydro-1,3-benzothiazol-7-yl)ethyl]amino}ethyl)-β-alaninamide bis-trifluoroacetic acid salt]	3160	2.51	0.84	–	–	–
O=C(CCNCCc1cccc(F)c1F)N(CCNCCc1ccc(O)c2[nH]c(=O)sc12)C1CCCCC1 [Example 93, N-Cyclohexyl-N^3-[2-(2,3-difluorophenyl)ethyl]-N-(2-{[2-(4-hydroxy-2-oxo-2,3-dihydro-1,3-benzothiazol-7-yl)ethyl]amino}ethyl)-β-alaninamide dihydrobromide salt]	–	–	–	5.2	8.6	–
O=C(CCNCCc1ccc(F)cc1)N(CCNCCc1ccc(O)c2[nH]c(=O)sc12)C1CCCCC1 [Example 16, N-Cyclohexyl-N^3-[2-(4-fluorophenyl)ethyl]-N-(2-{[2-(4-hydroxy-2-oxo-2,3-dihydro-1,3-benzothiazol-7-yl)ethyl]amino}ethyl)-β-alaninamide bis-trifluoroacetic acid salt]	7940	3.98	0.91	–	–	–
O=C(CCNCCc1cccs1)N(CCNCCc1ccc(O)c2[nH]c(=O)sc12)C1CCCCC1 [Example 35, N-Cyclohexyl-N-(2-{[2-(4-hydroxy-2-oxo-2,3-dihydro-1,3-benzothiazol-7-yl)ethyl]amino}ethyl)-N^3-[2-(2-thienyl)ethyl]-β-alaninamide bis-trifluoroacetic acid salt]	3980	3.98	0.91	–	–	–
O=C(CCNCCc1ccccc1)N(CCNCCc1ccc(O)c2[nH]c(=O)sc12)C1CCCCCC1 [Example 98, N-Cycloheptyl-N-(2-{[2-(4-hydroxy-2-oxo-2,3-dihydro-1,3-benzothiazol-7-yl)ethyl]amino}ethyl)-N^3-(2-phenylethyl)-β-alaninamide dihydrobromide salt]	2000	1.58	–	–	–	0.8
O=C(CCNCCc1ccc(Cl)cc1)N(CCNCCc1ccc(O)c2[nH]c(=O)sc12)C1CCCCCC1 [Example 51, N^3-[2-(4-Chlorophenyl)ethyl]-N^1-cycloheptyl-N^1-(2-{[2-(4-hydroxy-2-oxo-2,3-dihydro-1,3-benzothiazol-7-yl)ethyl]amino}ethyl)-β-alaninamide bis-trifluoroacetic acid salt]	2510	5.01	0.59	–	–	–
NS(=O)(=O)c1ccc(CCNCCC(=O)N(CCNCCc2ccc(O)c3[nH]c(=O)sc23)C2CCCCC2)cc1 [Example 69, N^3-{2-[4-(Aminosulfonyl)phenyl]ethyl}-N^1-cyclohexyl-N^1-(2-{[2-(4-hydroxy-2-oxo-2,3-dihydro-1,3-benzothiazol-7-yl)ethyl]amino}ethyl)-β-alaninamide bis-trifluoroacetic acid salt]	6310	2	0.82	–	–	–
Cc1cccc(CCNCCC(=O)N(CCNCCc2ccc(O)c3[nH]c(=O)sc23)C2CCOCC2)c1 [Example 25, N-(2-{[2-(4-Hydroxy-2-oxo-2,3-dihydro-1,3-benzothiazol-7-yl)ethyl]amino}ethyl)-N^3-[2-(3-methylphenyl)ethyl]-N-(tetrahydro-2H-pyran-4-yl)-β-alaninamide bis-trifluoroacetic acid salt]	5010	7.94	1.05	–	–	–
O=C(CCNCCc1cc(F)cc(F)c1)N(CCNCCc1ccc(O)c2[nH]c(=O)sc12)C1CCCCCC1 [Example 58, N^1-Cycloheptyl-N^3-[2-(3,5-difluorophenyl)ethyl]-N^1-(2-{[2-(4-hydroxy-2-oxo-2,3-dihydro-1,3-benzothiazol-7-yl)ethyl]amino}ethyl)-β-alaninamide bis-trifluoroacetic acid salt]	5010	3.98	0.84	–	–	–
O=C(CCNCCc1ccc(Cl)s1)N(CCNCCc1ccc(O)c2[nH]c(=O)sc12)C1CCCCC1 [Example 72, N^3-[2-(5-Chloro-2-thienyl)ethyl]-N^1-cyclohexyl-N^1-(2-{[2-(4-hydroxy-2-oxo-2,3-dihydro-1,3-benzothiazol-7-yl)ethyl]amino}ethyl)-β-alaninamide bis-trifluoroacetic acid salt]	3160	3.98	0.89	–	–	–

— patent US20100022491A1, “4-HYDROXY-2-OXO-2,3-DIHYDRO-1,3-BENZOTHIAZOL-7YL COMPOUNDS FOR MODULATION OF B2-ADRENORECEPTOR ACTIVITY” (ASTRAZENECA AB, priority 2006, published 2010)
